Source: patent publication US20200093751A1, “CHEMOPROTECTIVE/CHEMOACTIVE NANODROPLETS AND METHODS OF USE THEREOF” (priority 2016, published 2020)

What was measured:
[1] = test system: NCI-H460 human lung cancer model; test: Tumor growth inhibition in NCI-H460 human lung cancer model in nude mice; type: in vivo; conditions: TAXOTERE 15 mg/kg tail vein once per week, two injections; treatment ended on 13th day
Description: NCI-H460 cell suspensions were injected subcutaneously on the backs of mice to establish a tumor model. When tumor volume reached approximately 50 mm^3, groups of tumor-bearing mice (n=5) were injected through the tail vein once per week for a total of two weeks with a dose of 15 mg/kg per animal for TAXOTERE® or 30 mg/kg per animal twice per week for three weeks for Tonp nanodroplets. On the 20th day, the tumor growth inhibition of d-T3 (Tonp) treatment was 70%.
NCI-H460 cell suspensions were injected subcutaneously on the backs of mice to establish the tumor model. […] The Tonp was injected one day before TAXOTERE® starting just before the second injection of TAXOTERE®.
NCI-H460 human lung cancer cells were injected subcutaneously on the backs of nude mice to establish a tumor model. When tumor volume reached approximately 50 mm^3, mice were divided into treatment groups, which typically consisted of five mice.
In one experiment, tumor-bearing mice were either left untreated, were treated with TAXOTERE®, or were treated with Tonp nanodroplets. Mice were injected through the trail vein once per week with 15 mg/kg of TAXOTERE® or twice per week for three weeks with a dose of 30 mg/kg of Tonp.
One group of tumor-bearing mice was injected with TAXOTERE® through the tail vein once per week at a dose of 15 mg/kg per animal. […]

[2] = Toxicity / chemoprotective effect (body weight) in NCI-H460 tumor-bearing nude mice; type: in vivo
Description: When tumor volume reached approximately 50 mm^3, groups of tumor-bearing mice (n=5) were injected through the tail vein twice per week for a total of three weeks with a dose of 30 mg/kg per animal.
When tumor volume reached approximately 50 mm^3, groups of tumor-bearing mice (n=5) were injected through the tail vein twice per week for a total of three weeks with a dose of 30 mg/kg per animal of Tonp or once per week with a dose of 15 mg/kg per animal of TAXOTERE®.
The Tonp was injected one day before TAXOTERE® starting just before the second injection of TAXOTERE®.
Toxicity of the nanodroplet formulations was further assessed with respect to groups of mice with tumors. NCI-H460 human lung cancer cells were injected subcutaneously on the backs of nude mice to establish a tumor model. When tumor volume reached approximately 50 mm^3, mice were divided into treatment groups, which typically consisted of five mice. Mice were injected through the tail vein twice per week for three weeks with 30 mg/kg of Tonp or once per week with a dose of 15 mg/kg of TAXOTERE®.
One group of tumor-bearing mice was injected with TAXOTERE® through the tail vein once per week at a dose of 15 mg/kg per animal. […] Tonp, when used, was injected one day before TAXOTERE® starting just before the second injection of TAXOTERE®.

With `CC(=O)O[C@@]12CO[C@@H]1C[C@H](O)[C@@]1(C)C(=O)[C@H](O)C3=C(C)[C@@H](OC(=O)[C@H](O)[C@@H](NC(=O)OC(C)(C)C)c4ccccc4)C[C@@](O)([C@@H](OC(=O)c4ccccc4)[C@H]21)C3(C)C` [TAXOTERE®, docetaxel] the tumor growth inhibition [1] was 71%, the “body weight after about two weeks of treatment” value ([2]; TAXOTERE 15 mg/kg once per week) was “significantly decreased in body weight” and the “body weight after two injections of TAXOTERE” value ([2]; TAXOTERE 15 mg/kg once per week without Tonp, treatment ended on 13th day) was “severe body weight drop”.
